Measurements as given in patent publication US8492550B2, “Hydroxyalkanyl amides as modulators of chemokine receptor activity” (Bristol-Myers Squibb Company, priority 2008, dated 2013).

Molecular target: T1, CCR1 (Homo sapiens, UniProt P32246)
T1 construct: the THP-1 cell line, which expresses the endogenous CCR1 receptor; endogenous in cells; host or cells: THP-1 (human monocytic cell line); human PBMC or human monocytes are named as alternatives
T1 sequence (P32246 1-355): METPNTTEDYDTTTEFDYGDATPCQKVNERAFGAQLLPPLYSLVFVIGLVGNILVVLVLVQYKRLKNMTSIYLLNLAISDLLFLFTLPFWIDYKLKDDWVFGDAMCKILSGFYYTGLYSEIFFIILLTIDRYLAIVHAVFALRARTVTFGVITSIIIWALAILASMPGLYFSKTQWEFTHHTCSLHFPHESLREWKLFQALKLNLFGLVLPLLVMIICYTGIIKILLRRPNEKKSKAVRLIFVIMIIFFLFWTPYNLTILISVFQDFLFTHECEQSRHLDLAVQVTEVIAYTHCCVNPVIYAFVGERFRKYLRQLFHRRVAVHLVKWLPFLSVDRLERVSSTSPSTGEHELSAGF
Experiment: Antagonism of 125I-MIP-1α binding to human THP-1 cells (CCR1 binding)
Conditions: THP-1 cells expressing endogenous CCR1; 50 pM 125I-labeled human MIP-1α; room temperature, thirty minutes; read-out: CCR1 Binding Ki (n = 1 unless otherwise noted)
Method: Antagonism of MIP-1α Binding to Human THP-1 Cells
Compounds of the present invention have activity in the antagonism of MIP-1α binding to human THP-1 cells described here.
Millipore filter plates (#MABVN1250) are treated with 100 μl of binding buffer (0.5% bovine serum albumin, 20 mM HEPES buffer and 5 mM magnesium chloride in RPMI 1640 media) for thirty minutes at room temperature. To measure binding, 50 μl of binding buffer, with or without a known concentration of compound, is combined with 50 μl of ^125-I labeled human MIP-1α (to give a final concentration of 50 pM radioligand) and 50 μl of binding buffer containing 5×10^5 cells. Cells used for such binding assays can include the THP-1 cell line, which expresses the endogenous CCR1 receptor, or human peripheral blood mononuclear cells, isolated by Ficoll-Hypaque gradient centrifugation, or human monocytes (Weiner et al., J. Immunol. Methods, 36:89 (1980)). The mixture of compound, cells and radioligand is incubated at room temperature for thirty minutes. Plates are placed onto a vacuum manifold, vacuum applied, and the plates washed three times with binding buffer containing 0.5M NaCl. The plastic skirt is removed from the plate, the plate allowed to air dry, the wells punched out and counted. […]

SMILES | Ki [nM]
CCC(NC(=O)C1CCCC1)C(O)C1CCN(c2ccc(Cl)cc2)CC1 (single isomer, unassigned) [Example 1, N-(1-(1-(4-Chlorophenyl)piperidin-4-yl)-1-hydroxybutan-2-yl)cyclopentanecarboxamide] | 930
CCC(NC(=O)C1CCCC1)C(O)C1CCN(c2ccc(Cl)cc2)CC1 (single isomer, unassigned) [Example 2, N-(1-(1-(4-Chlorophenyl)piperidin-4-yl)-1-hydroxybutan-2-yl)cyclopentanecarboxamide] | 354
